From US20260022142A1, “MACROCYCLIC IMMUNOMODULATORS” (Bristol-Myers Squibb Company, priority 2022, published 2026)
Bridge positions count the residues as written; N and C are the ends. Square brackets hold non-standard residues; d marks the D form. Peptide text beside a SMILES is read from it. * marks the point of attachment. Bip = N[C@@H](Cc1ccc(-c2ccccc2)cc1)C(=O)O; Phe(3-Me) = Cc1cccc(C[C@H](N)C(=O)O)c1; Val(3-OH) = CC(C)(O)[C@H](N)C(=O)O; Cha = N[C@@H](CC1CCCCC1)C(=O)O; Cit = NC(=O)NCCC[C@H](N)C(=O)O; Carboxymethyl = O=C(O)C*; Orn = NCCC[C@H](N)C(=O)O; Aun = NCCCCCCCCCCC(=O)O; Dab = NCC[C@H](N)C(=O)O; Dap = NC[C@H](N)C(=O)O

Target: T1, PD-1/PD-L1 interaction (PE-labeled human PD-L1-Ig binding to Jurkat cell line over-expressing human PD-1) (Homo sapiens, UniProt Q15116)
T1 construct: expressed in transfected cells; host or cells: Jurkat
Assay: Jurkat-PD-1 Cell Binding High-Content Screening Assay (CBA)
Assay type: cell-based
Conditions: Jurkat cell line over-expressing human PD-1; PE-labeled PD-L1-Ig 20 nM final; read-out: Jurkat hPD1-PDL1 IC50
Method in brief: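 Jurkat cells over-expressing human PD-1 (8×10^3 per well, DMEM/10% FCS) preincubated with compound 2 h at 37° C, then PE-labeled human PD-L1-Ig (20 nM final) added for 1 h. Cells fixed with paraformaldehyde, Hoechst-stained, and bound fluorescence quantified by high-content imaging.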

T1 sequence (Q15116 25-288): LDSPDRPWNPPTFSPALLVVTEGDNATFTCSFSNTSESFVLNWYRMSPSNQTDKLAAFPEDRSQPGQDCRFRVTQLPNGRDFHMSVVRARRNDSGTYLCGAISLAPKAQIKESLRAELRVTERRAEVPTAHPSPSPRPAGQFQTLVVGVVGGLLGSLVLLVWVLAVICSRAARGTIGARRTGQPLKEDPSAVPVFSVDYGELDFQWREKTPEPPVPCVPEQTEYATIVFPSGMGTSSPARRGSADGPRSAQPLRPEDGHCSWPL

Row | IC50 | SMILES
1 | 0.0255 µM | Cc1cccc(C[C@@H]2NC(=O)[C@H](CC(=O)O)NC(=O)[C@H](Cc3ccc(OCC(=O)O)cc3)NC(=O)[C@H](CN)NC(=O)CSC[C@@H](C(=O)N[C@@H](CCN)C(=O)NCCCCCCCCCCC(=O)O)NC(=O)[C@H](CCCN)NC(=O)[C@H](C(C)C)NC(=O)[C@H](CC3CCCCC3)NC(=O)[C@H](CCN)NC(=O)[C@@H](CC(C)C)NC(=O)[C@H](CCCN)NC(=O)[C@H](CCCNC(N)=O)NC(=O)[C@H](Cc3ccc(-c4ccccc4)cc3)NC(=O)[C@H](Cc3ccc(OCC(=O)O)cc3)NC2=O)c1 [Compound 2844] ({CH2CO}-[Dap]Y(Carboxymethyl)D[Phe(3-Me)]Y(Carboxymethyl)[Bip][Cit][Orn][dL][Dab][Cha]V[Orn]C[Dab][Aun]-OH; thioether N-14)
2 | 0.0142 µM | Cc1cccc(C[C@@H]2NC(=O)[C@H](CC(=O)O)NC(=O)[C@H](Cc3ccc(OCC(=O)O)cc3)NC(=O)[C@H](CN)NC(=O)CSC[C@@H](C(=O)N[C@@H](CCN)C(=O)NCCCCCCCCCCC(=O)O)NC(=O)[C@H](CCCN)NC(=O)[C@H](C(C)C)NC(=O)[C@H](CC3CCCCC3)NC(=O)[C@H](CCN)NC(=O)[C@@H](CC(C)C)NC(=O)[C@H](CCCN)NC(=O)[C@H](CCCNC(N)=O)NC(=O)[C@H](Cc3ccc(-c4ccccc4)cc3)NC(=O)[C@H](C(C)C)NC2=O)c1 [Compound 2845] ({CH2CO}-[Dap]Y(Carboxymethyl)D[Phe(3-Me)]V[Bip][Cit][Orn][dL][Dab][Cha]V[Orn]C[Dab][Aun]-OH; thioether N-14)
3 | 0.0128 µM | Cc1cccc(C[C@@H]2NC(=O)[C@H](CC(=O)O)NC(=O)[C@H](Cc3ccc(OCC(=O)O)cc3)NC(=O)[C@H](CN)NC(=O)CSC[C@@H](C(=O)N[C@@H](CCN)C(=O)NCCCCCCCCCCC(=O)O)NC(=O)[C@H](CCCN)NC(=O)[C@H](C(C)C)NC(=O)[C@H](CC3CCCCC3)NC(=O)[C@H](CCN)NC(=O)[C@@H](CC(C)C)NC(=O)[C@H](CCCN)NC(=O)[C@H](CCCNC(N)=O)NC(=O)[C@H](Cc3ccc(-c4ccccc4)cc3)NC(=O)[C@H](Cc3ccc(O)cc3)NC2=O)c1 [Compound 2846] ({CH2CO}-[Dap]Y(Carboxymethyl)D[Phe(3-Me)]Y[Bip][Cit][Orn][dL][Dab][Cha]V[Orn]C[Dab][Aun]-OH; thioether N-14)
4 | 0.0205 µM | Cc1cccc(C[C@@H]2NC(=O)[C@H](CC(=O)O)NC(=O)[C@H](Cc3ccc(OCC(=O)O)cc3)NC(=O)[C@H](CN)NC(=O)CSC[C@@H](C(=O)N[C@@H](CCN)C(=O)NCCCCCCCCCCC(=O)O)NC(=O)[C@H]([C@@H](C)O)NC(=O)[C@H](C(C)C)NC(=O)[C@H](CC3CCCCC3)NC(=O)[C@H](CCN)NC(=O)[C@@H](CC(C)C)NC(=O)[C@H](CCCN)NC(=O)[C@H](CCC(N)=O)NC(=O)[C@H](Cc3ccc(-c4ccccc4)cc3)NC(=O)[C@H](C(C)C)NC2=O)c1 [Compound 2847] ({CH2CO}-[Dap]Y(Carboxymethyl)D[Phe(3-Me)]V[Bip]Q[Orn][dL][Dab][Cha]VTC[Dab][Aun]-OH; thioether N-14)
5 | 0.005 µM | Cc1cccc(C[C@@H]2NC(=O)[C@H](CC(=O)O)NC(=O)[C@H](Cc3ccc(OCC(=O)O)cc3)NC(=O)[C@H](CCCNC(=N)N)NC(=O)CSC[C@@H](C(=O)N[C@@H](CCN)C(=O)NCCCCCCCCCCC(=O)O)NC(=O)[C@H](CCCN)NC(=O)[C@H](C(C)(C)O)NC(=O)[C@H](CC3CCCCC3)NC(=O)[C@H](CCN)NC(=O)[C@@H](CC(C)C)NC(=O)[C@H](CCCN)NC(=O)[C@H](Cc3ccc(OCC(=O)O)cc3)NC(=O)[C@H](Cc3ccc(-c4ccccc4)cc3)NC(=O)[C@H](Cc3ccc(OCC(=O)O)cc3)NC2=O)c1 [Compound 2849] ({CH2CO}-RY(Carboxymethyl)D[Phe(3-Me)]Y(Carboxymethyl)[Bip]Y(Carboxymethyl)[Orn][dL][Dab][Cha][Val(3-OH)][Orn]C[Dab][Aun]-OH; thioether N-14)
6 | 0.0304 µM | Cc1cccc(C[C@@H]2NC(=O)[C@H](CC(=O)O)NC(=O)[C@H](Cc3ccc(OCC(=O)O)cc3)NC(=O)[C@H](CCCNC(=N)N)NC(=O)CSC[C@@H](C(=O)N[C@@H](CCCCN)C(=O)NCCCCCCCCCCC(=O)O)NC(=O)[C@H](CN)NC(=O)[C@H](C(C)(C)O)NC(=O)[C@H](CC3CCCCC3)NC(=O)[C@H](CCN)NC(=O)[C@@H](CC(C)C)NC(=O)[C@H](CCCN)NC(=O)[C@H](Cc3ccc(OCC(=O)O)cc3)NC(=O)[C@H](Cc3ccc(-c4ccccc4)cc3)NC(=O)[C@H](Cc3ccc(OCC(=O)O)cc3)NC2=O)c1 [Compound 2850] ({CH2CO}-RY(Carboxymethyl)D[Phe(3-Me)]Y(Carboxymethyl)[Bip]Y(Carboxymethyl)[Orn][dL][Dab][Cha][Val(3-OH)][Dap]CK[Aun]-OH; thioether N-14)
7 | 0.0213 µM | Cc1cccc(C[C@@H]2NC(=O)[C@H](CC(=O)O)NC(=O)[C@H](Cc3ccc(OCC(=O)O)cc3)NC(=O)[C@H](CCCNC(=N)N)NC(=O)CSC[C@@H](C(=O)N[C@@H](CO)C(=O)N[C@@H](CO)C(=O)NCCCCCCCCCCC(=O)O)NC(=O)[C@H]([C@@H](C)O)NC(=O)[C@H](C(C)C)NC(=O)[C@H](CC3CCCCC3)NC(=O)[C@H](CCN)NC(=O)[C@@H](CC(C)C)NC(=O)[C@H](CCCN)NC(=O)[C@H](CCCNC(N)=O)NC(=O)[C@H](Cc3ccc(-c4ccccc4)cc3)NC(=O)[C@H](C(C)C)NC2=O)c1 [Compound 2851] ({CH2CO}-RY(Carboxymethyl)D[Phe(3-Me)]V[Bip][Cit][Orn][dL][Dab][Cha]VTCSS[Aun]-OH; thioether N-14)
8 | 0.021 µM | Cc1cccc(C[C@@H]2NC(=O)[C@H](CC(=O)O)NC(=O)[C@H](Cc3ccc(OCC(=O)O)cc3)NC(=O)[C@H](CN)NC(=O)CSC[C@@H](C(=O)N[C@@H](CO)C(=O)N[C@@H](CO)C(=O)NCCCCCCCCCCC(=O)O)NC(=O)[C@H]([C@@H](C)O)NC(=O)[C@H](C(C)C)NC(=O)[C@H](CC3CCCCC3)NC(=O)[C@H](CCN)NC(=O)[C@@H](CC(C)C)NC(=O)[C@H](CCCN)NC(=O)[C@H](CCCNC(N)=O)NC(=O)[C@H](Cc3ccc(-c4ccccc4)cc3)NC(=O)[C@H](C(C)C)NC2=O)c1 [Compound 2852] ({CH2CO}-[Dap]Y(Carboxymethyl)D[Phe(3-Me)]V[Bip][Cit][Orn][dL][Dab][Cha]VTCSS[Aun]-OH; thioether N-14)
9 | 0.0655 µM | Cc1cccc(C[C@@H]2NC(=O)[C@H](CC(=O)O)NC(=O)[C@H](Cc3ccc(OCC(=O)O)cc3)NC(=O)[C@H](CN)NC(=O)CSC[C@@H](C(=O)N[C@@H](CCN)C(=O)N[C@@H](CO)C(=O)N[C@@H](CO)C(=O)NCCCCCCCCCCC(=O)O)NC(=O)[C@H]([C@@H](C)O)NC(=O)[C@H](C(C)C)NC(=O)[C@H](CC3CCCCC3)NC(=O)[C@H](CCN)NC(=O)[C@@H](CC(C)C)NC(=O)[C@H](CCCN)NC(=O)[C@H](CCCNC(N)=O)NC(=O)[C@H](Cc3ccc(-c4ccccc4)cc3)NC(=O)[C@H](C(C)C)NC2=O)c1 [Compound 2853] ({CH2CO}-[Dap]Y(Carboxymethyl)D[Phe(3-Me)]V[Bip][Cit][Orn][dL][Dab][Cha]VTC[Dab]SS[Aun]-OH; thioether N-14)
